Pest or weed control data for 30 compounds are collected here from patent US20200288710A1, “SUBSTITUTED SULPHONAMIDES FOR CONTROLLING ANIMAL PESTS” (BAYER CROPSCIENCE AKTIENGESELLSCHAFT, priority 2016, published 2020).

Common to all, as to format: in vivo
One assay relates to Meloidogyne incognita. Nature of the assay: Meloidogyne incognita test. To be noted: 336 h, lettuce, after 14 days, read-out: nematicidal efficacy (formation of galls). The method, boiled down: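 Gall formation on lettuce roots scored after 14 days: 0% means gall count equals untreated control, 100% means none. Sand vessels held the compound (acetone concentrate diluted in water), southern root-knot nematode egg/larvae suspension and lettuce seeds.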

Assay [1] deals with Myzus persicae. The assay is described as follows: Myzus persicae spray test (Chinese cabbage leaf discs). The note with it: foliar, 120 h, 500 g/ha, after 5-6 days, read-out: efficacy. In a few lines:
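Formulated compound in acetone/dimethylformamide, diluted in water with 1000 ppm emulsifier, was sprayed onto Brassica pekinensis leaf discs carrying mixed-stage Myzus persicae. Percent mortality was read 5-6 days later (0% = no aphids killed, 100% = all killed).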

Assay [2] relates to Myzus persicae. Nature of the assay: Myzus persicae oral test. To be noted: 120 h, 20 ppm, oral uptake, after 5 days, read-out: efficacy. The method, boiled down:
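Aphids of mixed ages imbibe, through parafilm, compound solution (acetone stock, water-diluted) combined with sugar-supplemented IPL41 medium to 200 μl. Efficacy read at day 5 as percent killed, 0% meaning no deaths.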

On to `Cc1csc(S(=O)(=O)NC(=O)c2cn(C)c(-c3c(F)cccc3F)n2)c1` [Example 350], for which the pest or weed control at 20 ppm in the assay with Meloidogyne incognita and in the assay on Myzus persicae [2] was 90% throughout. For the same compound, the pest or weed control at 500 g/ha in the assay with Myzus persicae [1] was found to be 100%.

Turning to `Cn1cc(C(=O)NS(=O)(=O)Cc2ccccc2Cl)nc1-c1ccccc1Cl` [Example 62], the pest or weed control at 20 ppm in the assay with Meloidogyne incognita amounted to 90%; in the assay on Myzus persicae [2], 100%. Moreover, the pest or weed control at 500 g/ha with Myzus persicae [1] stood at 90%.

`COc1ccc(Br)c(S(=O)(=O)NC(=O)c2cn(C)c(-c3cccc(Cl)c3Cl)n2)c1` [Example 557]: the pest or weed control at 20 ppm in the assay on Meloidogyne incognita is 90%; in the assay with Myzus persicae [2] it was 100%. In addition, in the assay on Myzus persicae [1], the pest or weed control at 500 g/ha is 90%.

`Cc1cc(C(=O)NS(=O)(=O)c2ccccc2Cl)nn1-c1ncccc1Br` [Example 295]: the pest or weed control at 20 ppm is 90% in the assay on Meloidogyne incognita and 100% with Myzus persicae [2]. The pest or weed control at 500 g/ha with Myzus persicae [1] was found to be 100%.

For the compound `Cc1cc(S(=O)(=O)NC(=O)c2cn(C)c(-c3c(F)cccc3F)n2)c(C)s1` [Example 182], the pest or weed control at 20 ppm with Meloidogyne incognita and with Myzus persicae [2] was 100% in each case. In addition, the pest or weed control at 500 g/ha in the assay on Myzus persicae [1] is 90%.

On to `Cc1ccccc1-c1nc(C(=O)NS(=O)(=O)c2c(Cl)cccc2Cl)cn1C` [Example 99], for which the pest or weed control at 20 ppm came out at 90% with Meloidogyne incognita and 100% in the assay on Myzus persicae [2]. Further, in the assay with Myzus persicae [1], the pest or weed control at 500 g/ha came to 90%.

`Cn1cc(C(=O)NS(=O)(=O)c2sccc2Br)nc1-c1c(F)cccc1F` [Example 354]: the results for the pest or weed control at 20 ppm in the assay with Meloidogyne incognita and in the assay with Myzus persicae [2] were 90% and 100%, respectively. Also, the pest or weed control at 500 g/ha in the assay on Myzus persicae [1] amounted to 100%.

On to `Cn1cc(C(=O)NS(=O)(=O)c2c(Cl)cccc2C(F)(F)F)nc1-c1c(F)cccc1F` [Example 372], for which the pest or weed control at 20 ppm in the assay with Meloidogyne incognita stood at 90%; in the assay with Myzus persicae [2] it was 100%. Moreover, the pest or weed control at 500 g/ha in the assay on Myzus persicae [1] is 100%.

For the compound `Cn1cc(C(=O)NS(=O)(=O)c2ccccc2Cl)nc1-c1cccc(Cl)c1Cl` [Example 513], the pest or weed control at 20 ppm in the assay with Meloidogyne incognita and in the assay with Myzus persicae [2] was 100% in each case. In addition, the pest or weed control at 500 g/ha in the assay on Myzus persicae [1] is 100%.

Turning to `Cn1cc(C(=O)NS(=O)(=O)c2cscc2Br)nc1-c1c(F)cccc1F` [Example 183], the pest or weed control at 20 ppm in the assay on Meloidogyne incognita and in the assay on Myzus persicae [2] was 100% each time. For the same compound, the pest or weed control at 500 g/ha in the assay with Myzus persicae [1] worked out at 100%.

Consider `Cn1cc(C(=O)NS(=O)(=O)c2cc(C(F)(F)F)ccc2Cl)nc1-c1c(F)cccc1F` [Example 453], for which the pest or weed control at 20 ppm in the assay with Meloidogyne incognita came out at 90%; in the assay with Myzus persicae [2] it was 100%. The pest or weed control at 500 g/ha in the assay with Myzus persicae [1] worked out at 90%.

On to `COc1ccccc1S(=O)(=O)NC(=O)c1cn(C)c(-c2cccc(F)c2F)n1` [Example 528], for which the pest or weed control at 20 ppm in the assay on Meloidogyne incognita stood at 90%; with Myzus persicae [2] it was 100%. Further, the pest or weed control at 500 g/ha in the assay with Myzus persicae [1] came out at 100%.

Take `Cc1noc(C)c1S(=O)(=O)NC(=O)c1cn(C)c(-c2c(F)cccc2F)n1` [Example 358]: the pest or weed control at 20 ppm with Meloidogyne incognita is 90%; in the assay with Myzus persicae [2], 100%. Moreover, the pest or weed control at 500 g/ha in the assay on Myzus persicae [1] is 100%.

As to `Cc1cc(F)ccc1S(=O)(=O)NC(=O)c1cn(C)c(-c2c(F)cccc2F)n1` [Example 444], the pest or weed control at 20 ppm in the assay on Meloidogyne incognita and with Myzus persicae [2] was 100% throughout. Further, in the assay on Myzus persicae [1], the pest or weed control at 500 g/ha is 90%.

`CC(C)S(=O)(=O)NC(=O)c1cn(C)c(-c2c(Cl)cccc2Cl)n1` [Example 81]: the pest or weed control at 20 ppm is 100% in the assay with Meloidogyne incognita and 90% in the assay on Myzus persicae [2]. For the same compound, the pest or weed control at 500 g/ha with Myzus persicae [1] came to 90%.

For `Cn1cc(C(=O)NS(=O)(=O)c2c(F)cccc2C(F)(F)F)nc1-c1c(F)cccc1F` [Example 371], the pest or weed control at 20 ppm with Meloidogyne incognita was 90%; with Myzus persicae [2], 100%. In the assay on Myzus persicae [1], the pest or weed control at 500 g/ha was found to be 90%.

Turning to `Cc1cc(C(=O)NS(=O)(=O)c2ccccc2Cl)nn1-c1ccccc1Cl` [Example 271], the pest or weed control at 20 ppm in the assay with Meloidogyne incognita and with Myzus persicae [2] was 100% each time. In addition, the pest or weed control at 500 g/ha in the assay on Myzus persicae [1] came out at 100%.

As to `Cc1ccccc1-c1nc(C(=O)NS(=O)(=O)c2ccccc2C)cn1C` [Example 29], the pest or weed control at 20 ppm with Meloidogyne incognita came out at 90%; in the assay with Myzus persicae [2] it was 100%. For the same compound, the pest or weed control at 500 g/ha with Myzus persicae [1] was 100%.

As to `Cn1nc(C(=O)NS(=O)(=O)c2ccccc2Br)nc1-c1c(F)cccc1F` [Example 158], the pest or weed control at 20 ppm stood at 90% in the assay with Meloidogyne incognita and 100% in the assay on Myzus persicae [2]. The pest or weed control at 500 g/ha in the assay with Myzus persicae [1] came out at 100%.

As to `Cn1cc(C(=O)NS(=O)(=O)c2c(Cl)cccc2Cl)nc1-c1ncccc1F` [Example 594], the pest or weed control at 20 ppm in the assay on Meloidogyne incognita was found to be 90%; in the assay with Myzus persicae [2], 100%. Besides, in the assay with Myzus persicae [1], the pest or weed control at 500 g/ha was 90%.

Consider `Cn1cc(C(=O)NS(=O)(=O)c2c(Cl)cc(Cl)cc2Cl)nc1-c1c(F)cccc1F` [Example 435], for which the pest or weed control at 20 ppm is 90% with Meloidogyne incognita and 100% in the assay on Myzus persicae [2]. The pest or weed control at 500 g/ha in the assay with Myzus persicae [1] amounted to 100%.

Take `Cn1cc(C(=O)NS(=O)(=O)c2cccc(Cl)c2)nc1-c1c(F)cccc1Cl` [Example 113]: the pest or weed control at 20 ppm in the assay on Meloidogyne incognita and in the assay with Myzus persicae [2] was 100% in each case. Besides, the pest or weed control at 500 g/ha in the assay with Myzus persicae [1] is 90%.

Turning to `Cn1cc(C(=O)NS(=O)(=O)c2ccc(Cl)s2)nc1-c1c(F)cccc1F` [Example 352], the pest or weed control at 20 ppm with Meloidogyne incognita and with Myzus persicae [2] was 100% throughout. Also, the pest or weed control at 500 g/ha in the assay on Myzus persicae [1] is 90%.

Turning to `Cc1[nH]c(-c2ccccc2Cl)nc1C(=O)NS(=O)(=O)c1ccccc1Cl` [Example 238], the pest or weed control at 20 ppm in the assay with Meloidogyne incognita and with Myzus persicae [2] was 100% in each case. The pest or weed control at 500 g/ha in the assay with Myzus persicae [1] stood at 100%.

Take `Cn1cc(C(=O)NS(=O)(=O)c2sccc2Br)nc1-c1ccccc1Cl` [Example 421]: the pest or weed control at 20 ppm in the assay on Meloidogyne incognita was found to be 90%; in the assay with Myzus persicae [2] it was 100%. Besides, the pest or weed control at 500 g/ha in the assay on Myzus persicae [1] worked out at 100%.

Regarding `CCCc1ccccc1S(=O)(=O)NC(=O)c1cn(C)c(-c2c(F)cccc2F)n1` [Example 403], the pest or weed control at 20 ppm in the assay on Meloidogyne incognita was 90%; in the assay on Myzus persicae [2], 100%. Moreover, the pest or weed control at 500 g/ha in the assay on Myzus persicae [1] was found to be 100%.

For the compound `Cn1cc(C(=O)NS(=O)(=O)c2ccc(Cl)cc2)nc1-c1c(Cl)cccc1Cl` [Example 43], the results for the pest or weed control at 20 ppm in the assay on Meloidogyne incognita and with Myzus persicae [2] were 100% and 90%, respectively. Moreover, the pest or weed control at 500 g/ha in the assay on Myzus persicae [1] came out at 90%.

With `Cn1cc(C(=O)NS(=O)(=O)c2ccc(F)cc2Br)nc1-c1c(F)cccc1F` [Example 438], the pest or weed control at 20 ppm in the assay on Meloidogyne incognita and in the assay with Myzus persicae [2] was 90% throughout. Besides, the pest or weed control at 500 g/ha in the assay with Myzus persicae [1] was determined as 100%.

`CCn1cc(C(=O)NS(=O)(=O)c2ccccc2)nc1-c1ccccc1Cl` [Example 41]: the pest or weed control at 20 ppm with Meloidogyne incognita and with Myzus persicae [2] was 90% each time. Further, in the assay on Myzus persicae [1], the pest or weed control at 500 g/ha came out at 90%.

Consider `CCn1cc(C(=O)NS(=O)(=O)c2c(Cl)cccc2Cl)nc1-c1ccccc1Cl` [Example 69], for which the figures for the pest or weed control at 20 ppm with Meloidogyne incognita and in the assay with Myzus persicae [2] were 90% and 100%, respectively. Further, in the assay with Myzus persicae [1], the pest or weed control at 500 g/ha worked out at 90%.
